Where only a bound is given, the exact number is not on record here.

The target in assay [1] is T1, Recombinant JAK1 (Homo sapiens, UniProt P23458).
T1 construct: purchased Carna Biosciences
The experiment in a line: JAK biochemical assay (LANCE Ultra TR-FRET), JAK1. Conditions: recombinant JAK1, TR-FRET; read-out: Biochemical Assay (μM) JAK1. Put shortly:
(§1)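 Kinase reactions ran in buffer of 50 mM HEPES pH 7.5 with 1 mM EGTA, 10 mM MgCl2, 2 mM DTT and 0.01% Tween-20, using recombinant enzyme. Phosphorylated ULight substrate was detected by TR-FRET, and compound effect expressed as % inhibition against vehicle.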
On the technique in general: In TR-FRET formats the signal depends on donor and acceptor labels being close together.

For assay [2], the target named is T2, Recombinant JAK2 (Homo sapiens, UniProt O60674).
T2 construct: purchased Carna Biosciences
The experiment in a line: JAK biochemical assay (LANCE Ultra TR-FRET), JAK2. Conditions: recombinant JAK2, TR-FRET; read-out: Biochemical Assay (μM) JAK2. Put shortly: as §1

Assay [3] addresses T3, Recombinant JAK3 (Homo sapiens, UniProt P52333).
T3 construct: purchased Carna Biosciences
T3 sequence (P52333 1-1124): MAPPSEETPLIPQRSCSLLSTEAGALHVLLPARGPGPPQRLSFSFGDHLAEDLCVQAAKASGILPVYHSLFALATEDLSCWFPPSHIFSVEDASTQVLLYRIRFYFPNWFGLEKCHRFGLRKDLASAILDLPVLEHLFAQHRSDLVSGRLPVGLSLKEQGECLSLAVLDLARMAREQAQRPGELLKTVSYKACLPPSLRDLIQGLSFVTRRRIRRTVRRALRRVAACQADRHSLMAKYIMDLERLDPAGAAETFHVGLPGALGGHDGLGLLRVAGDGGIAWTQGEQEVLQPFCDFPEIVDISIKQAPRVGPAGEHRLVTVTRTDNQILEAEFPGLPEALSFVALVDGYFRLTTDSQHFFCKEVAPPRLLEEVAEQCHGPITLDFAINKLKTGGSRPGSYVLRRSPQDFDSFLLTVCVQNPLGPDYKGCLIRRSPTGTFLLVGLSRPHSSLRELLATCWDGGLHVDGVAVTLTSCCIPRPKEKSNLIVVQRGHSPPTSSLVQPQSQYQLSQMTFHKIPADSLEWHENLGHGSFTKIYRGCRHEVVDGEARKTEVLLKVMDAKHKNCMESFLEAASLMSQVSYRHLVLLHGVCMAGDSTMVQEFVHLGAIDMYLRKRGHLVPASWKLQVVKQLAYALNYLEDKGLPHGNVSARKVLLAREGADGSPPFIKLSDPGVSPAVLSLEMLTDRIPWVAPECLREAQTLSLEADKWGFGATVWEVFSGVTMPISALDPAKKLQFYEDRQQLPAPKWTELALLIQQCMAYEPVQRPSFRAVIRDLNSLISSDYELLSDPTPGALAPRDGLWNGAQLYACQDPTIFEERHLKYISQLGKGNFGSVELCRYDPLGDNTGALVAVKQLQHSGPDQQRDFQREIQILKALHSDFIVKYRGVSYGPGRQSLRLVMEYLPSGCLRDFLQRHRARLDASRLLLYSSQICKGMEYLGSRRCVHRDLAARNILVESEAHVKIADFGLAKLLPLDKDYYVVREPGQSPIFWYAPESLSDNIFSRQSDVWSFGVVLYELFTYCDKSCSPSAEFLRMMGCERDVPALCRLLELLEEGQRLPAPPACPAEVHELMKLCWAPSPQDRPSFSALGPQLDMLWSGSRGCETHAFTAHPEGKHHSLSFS
Kind of assay: JAK biochemical assay (LANCE Ultra TR-FRET), JAK3. Conditions: recombinant JAK3, TR-FRET; read-out: Biochemical Assay (μM) JAK3. Put shortly:
as §1

Assay [4] has as its target T4, Recombinant TYK2 (Homo sapiens, UniProt P29597).
T4 construct: purchased Carna Biosciences
Kind of assay: JAK biochemical assay (LANCE Ultra TR-FRET), TYK2. Conditions: recombinant TYK2, TR-FRET; read-out: Biochemical Assay (μM) TYK2. In outline:
as §1

The subject of assay [5] is STAT3 phosphorylation by IL-6 in TF-1 cells. The experiment in a line: JAK cellular assay: STAT3 phosphorylation by IL-6 in TF-1 cells (HTRF). Format: cell-based. Conditions: Homo sapiens, TF-1, TF-1 cells, IL-6 30 ng/ml, pSTAT3 HTRF; read-out: Cell Based Assay (μM) TF-1/IL-6/pSTAT3. Put shortly: (§2)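 Phospho-STAT3 (IL-6, 30 ng/ml) and phospho-STAT5 (GMCSF, 5 ng/ml) read by HTRF in lysates after 20 min cytokine exposure, minus unstimulated-cell background. Cells were serum-starved overnight, plated at 120,000/well, given compound 30 min at 37 °C beforehand; DMSO 0.2% final.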

Assay [6] concerns STAT5 phosphorylation by GMCSF in TF-1 cells. Kind of assay: JAK cellular assay: STAT5 phosphorylation by GMCSF in TF-1 cells (HTRF). Format: cell-based. Conditions: Homo sapiens; TF-1 cells, GMCSF 5 ng/ml, pSTAT5 HTRF; read-out: Cell Based Assay (μM) TF-1/GMCSF/pSTAT5. Put shortly:
as §2

For assay [7], the system named is STAT5 phosphorylation by IL-2 in HT-2 cells. Kind of assay: STAT5 phosphorylation by IL-2 in HT-2 cells (HTRF). Format: cell-based. Conditions: HT2, HT-2 cells, IL-2 50 U/ml, pSTAT5 HTRF; read-out: Cell Based Assay (μM) HT-2/IL-2/pSTAT5. Put shortly:
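Readout is HTRF detection of phospho-STAT5 in lysates, corrected for signal from unstimulated cells. Before lysis, HT-2 cells starved in 10% FBS medium received compound for 30 min (0.2% DMSO final, 37 °C), followed by 50 U/ml recombinant human IL-2 for 20 min.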

T2 sequence (O60674 whole entry): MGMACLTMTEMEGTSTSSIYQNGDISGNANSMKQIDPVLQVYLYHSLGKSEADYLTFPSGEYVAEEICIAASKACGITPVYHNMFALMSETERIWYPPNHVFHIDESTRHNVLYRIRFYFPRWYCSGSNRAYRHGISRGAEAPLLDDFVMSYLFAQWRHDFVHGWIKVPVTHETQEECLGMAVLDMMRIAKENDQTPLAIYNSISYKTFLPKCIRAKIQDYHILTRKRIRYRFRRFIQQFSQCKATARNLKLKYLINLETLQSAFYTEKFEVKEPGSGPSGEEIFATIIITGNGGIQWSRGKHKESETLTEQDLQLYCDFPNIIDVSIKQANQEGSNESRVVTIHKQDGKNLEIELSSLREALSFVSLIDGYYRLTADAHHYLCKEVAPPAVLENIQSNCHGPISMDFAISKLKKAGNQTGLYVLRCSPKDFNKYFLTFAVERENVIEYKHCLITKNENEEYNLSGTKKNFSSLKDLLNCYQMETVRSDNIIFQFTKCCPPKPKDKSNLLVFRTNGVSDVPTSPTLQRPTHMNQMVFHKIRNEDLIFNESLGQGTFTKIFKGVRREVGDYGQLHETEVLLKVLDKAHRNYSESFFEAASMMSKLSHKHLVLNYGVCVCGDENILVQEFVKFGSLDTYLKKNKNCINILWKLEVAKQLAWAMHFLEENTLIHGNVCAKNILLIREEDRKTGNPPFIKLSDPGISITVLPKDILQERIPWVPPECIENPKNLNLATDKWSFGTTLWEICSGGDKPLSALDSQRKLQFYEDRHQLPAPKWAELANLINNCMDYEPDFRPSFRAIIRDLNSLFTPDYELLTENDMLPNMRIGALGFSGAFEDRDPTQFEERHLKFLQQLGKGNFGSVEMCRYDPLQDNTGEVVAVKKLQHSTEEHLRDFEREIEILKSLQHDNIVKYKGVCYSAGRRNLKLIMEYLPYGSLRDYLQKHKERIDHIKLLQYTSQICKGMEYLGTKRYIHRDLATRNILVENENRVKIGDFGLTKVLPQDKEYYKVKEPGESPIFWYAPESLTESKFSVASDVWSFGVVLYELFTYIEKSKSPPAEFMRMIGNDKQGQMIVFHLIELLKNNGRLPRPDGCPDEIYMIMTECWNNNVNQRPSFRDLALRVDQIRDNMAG
T4 sequence (P29597 whole entry): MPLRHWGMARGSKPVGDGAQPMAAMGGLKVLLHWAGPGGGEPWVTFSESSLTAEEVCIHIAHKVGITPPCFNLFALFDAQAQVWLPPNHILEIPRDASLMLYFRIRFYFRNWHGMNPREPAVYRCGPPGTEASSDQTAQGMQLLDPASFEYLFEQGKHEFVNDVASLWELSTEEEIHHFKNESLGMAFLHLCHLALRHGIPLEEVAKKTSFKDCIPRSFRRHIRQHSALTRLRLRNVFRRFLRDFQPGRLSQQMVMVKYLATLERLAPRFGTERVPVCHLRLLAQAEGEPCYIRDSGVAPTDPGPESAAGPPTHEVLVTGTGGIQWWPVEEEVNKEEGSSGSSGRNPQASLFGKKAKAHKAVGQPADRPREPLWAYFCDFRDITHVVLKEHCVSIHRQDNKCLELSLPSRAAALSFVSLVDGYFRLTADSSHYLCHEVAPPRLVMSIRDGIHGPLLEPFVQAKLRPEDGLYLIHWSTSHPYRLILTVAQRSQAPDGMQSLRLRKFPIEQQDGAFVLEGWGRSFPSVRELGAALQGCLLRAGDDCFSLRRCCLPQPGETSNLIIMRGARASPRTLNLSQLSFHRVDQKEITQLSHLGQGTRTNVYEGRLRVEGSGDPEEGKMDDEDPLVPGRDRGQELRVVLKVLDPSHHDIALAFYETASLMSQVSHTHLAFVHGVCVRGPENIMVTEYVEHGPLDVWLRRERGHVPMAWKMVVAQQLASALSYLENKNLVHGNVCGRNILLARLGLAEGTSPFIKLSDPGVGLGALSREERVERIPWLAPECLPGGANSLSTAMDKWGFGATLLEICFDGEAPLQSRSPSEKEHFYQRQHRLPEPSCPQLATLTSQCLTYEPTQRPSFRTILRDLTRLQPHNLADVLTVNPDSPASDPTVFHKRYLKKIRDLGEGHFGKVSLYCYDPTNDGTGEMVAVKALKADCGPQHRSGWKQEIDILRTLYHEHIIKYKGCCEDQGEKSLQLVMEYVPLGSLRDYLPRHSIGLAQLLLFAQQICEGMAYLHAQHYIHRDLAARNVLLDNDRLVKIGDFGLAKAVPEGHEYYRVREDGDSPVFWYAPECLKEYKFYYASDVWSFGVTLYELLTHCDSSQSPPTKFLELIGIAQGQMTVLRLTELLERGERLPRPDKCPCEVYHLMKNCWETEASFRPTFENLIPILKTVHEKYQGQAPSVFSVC
T1 sequence (P23458 whole entry): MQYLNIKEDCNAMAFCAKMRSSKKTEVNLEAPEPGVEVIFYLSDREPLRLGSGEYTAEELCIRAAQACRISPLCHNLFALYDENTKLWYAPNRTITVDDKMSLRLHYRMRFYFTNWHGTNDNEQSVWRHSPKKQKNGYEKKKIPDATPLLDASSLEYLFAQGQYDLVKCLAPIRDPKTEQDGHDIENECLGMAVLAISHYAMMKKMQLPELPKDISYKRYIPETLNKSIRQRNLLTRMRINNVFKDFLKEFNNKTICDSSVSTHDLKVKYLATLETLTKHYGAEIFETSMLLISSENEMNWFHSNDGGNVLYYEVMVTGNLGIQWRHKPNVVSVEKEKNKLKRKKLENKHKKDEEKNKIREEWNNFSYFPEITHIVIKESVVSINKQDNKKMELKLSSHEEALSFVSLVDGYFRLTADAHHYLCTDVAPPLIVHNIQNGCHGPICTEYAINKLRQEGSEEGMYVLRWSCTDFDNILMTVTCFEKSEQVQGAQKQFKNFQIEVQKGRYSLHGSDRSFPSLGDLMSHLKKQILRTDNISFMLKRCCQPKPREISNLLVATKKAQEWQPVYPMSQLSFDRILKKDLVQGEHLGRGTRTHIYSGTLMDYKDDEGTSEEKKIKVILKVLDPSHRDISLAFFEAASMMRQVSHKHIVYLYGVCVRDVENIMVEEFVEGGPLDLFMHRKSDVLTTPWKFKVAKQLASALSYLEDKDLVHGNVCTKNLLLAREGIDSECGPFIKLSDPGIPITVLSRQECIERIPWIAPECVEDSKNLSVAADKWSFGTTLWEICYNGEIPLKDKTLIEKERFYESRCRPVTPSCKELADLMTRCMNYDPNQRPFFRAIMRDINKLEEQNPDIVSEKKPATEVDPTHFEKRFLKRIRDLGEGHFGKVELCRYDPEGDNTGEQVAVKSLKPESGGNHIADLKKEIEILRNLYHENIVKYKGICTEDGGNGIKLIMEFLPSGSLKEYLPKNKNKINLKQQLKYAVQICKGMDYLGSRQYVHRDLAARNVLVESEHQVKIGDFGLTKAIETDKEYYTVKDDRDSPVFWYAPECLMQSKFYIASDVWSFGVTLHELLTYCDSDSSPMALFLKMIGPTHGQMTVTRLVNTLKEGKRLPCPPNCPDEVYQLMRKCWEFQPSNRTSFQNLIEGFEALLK

As for `CC(C)NCCC(c1ccc(-n2cc(-c3ccnc4[nH]cnc34)cn2)nc1)C(F)(F)F` (stereo not shown) [Example 1203, 3-(6-(4-(3H-imidazo[4,5-b]pyridin-7-yl)-1H-pyrazol-1-yl)pyridin-3-yl)-4,4,4-trifluoro-N-isopropylbutan-1-amine], the IC50 in assay [1] was under 0.1 µM; in assay [2], under 0.1 µM; in assay [3] it was under 0.1 µM; in assay [4] it was over 0.5 µM; in assay [5], over 0.1 µM; in assay [6], over 1 µM. Moreover, in assay [7], the IC50 is over 0.5 µM.
As to `FC(F)(F)C(CCNC1CC1)c1ccc(-n2cc(-c3ccnc4[nH]cnc34)cn2)nc1` (stereo not shown) [Example 1153, N-(3-(6-(4-(3H-imidazo[4,5-b]pyridin-7-yl)-1H-pyrazol-1-yl)pyridin-3-yl)-4,4,4-trifluorobutyl)cyclopropanamine], the IC50 in assay [1] was under 0.1 µM; in assay [2], under 0.1 µM; in assay [3], under 0.1 µM; in assay [4], over 0.5 µM; in assay [5], 0.36 µM; in assay [6], over 1 µM. Moreover, the IC50 in assay [7] was 2.1 µM.
Take `CC(=O)N1CCC(C(O)(c2ccc(-n3cc(-c4ccnc5[nH]cnc45)cn3)nc2)C(F)(F)F)CC1` (stereo not shown) [Example 1131, 1-(4-(1-(6-(4-(3H-imidazo[4,5-b]pyridin-7-yl)-1H-pyrazol-1-yl)pyridin-3-yl)-2,2,2-trifluoro-1-hydroxyethyl)piperidin-1-yl)ethanone]: the IC50 in assay [1] is 0.053 µM; in assay [2], 0.38 µM; in assay [3], 0.11 µM; in assay [4], over 1 µM; in assay [5], over 0.5 µM; in assay [6], over 10 µM. In assay [7], the IC50 is over 1 µM.
Regarding `FC(F)(F)[C@H](c1ccc(-n2cc(-c3ccnc4[nH]cnc34)cn2)nc1)C1COC1` (single isomer, unassigned) [Example 1185], the IC50 in assay [1] was under 0.1 µM; in assay [2], over 0.1 µM; in assay [3] it was over 0.1 µM; in assay [4], over 1 µM; in assay [5] it was 2 µM; in assay [6], over 1 µM. The IC50 in assay [7] is over 3 µM.
For `N#CCCC(O)(c1ccc(-n2cc(-c3ccnc4[nH]cnc34)cn2)nc1)C(F)(F)F` (stereo not shown) [Example 1227, 4-(6-(4-(3H-imidazo[4,5-b]pyridin-7-yl)-1H-pyrazol-1-yl)pyridin-3-yl)-5,5,5-trifluoro-4-hydroxypentanenitrile], the IC50 in assay [1] was under 0.1 µM; in assay [2] it was under 0.1 µM; in assay [3], under 0.1 µM; in assay [4] it was over 0.1 µM; in assay [5] it was over 0.1 µM; in assay [6] it was over 0.75 µM. The IC50 in assay [7] is over 0.5 µM.
In the case of `OCCC(c1ccc(-n2cc(-c3ccnc4[nH]cnc34)cn2)nc1)C(F)(F)F` (stereo not shown) [Example 1154, 3-(6-(4-(3H-imidazo[4,5-b]pyridin-7-yl)-1H-pyrazol-1-yl)pyridin-3-yl)-4,4,4-trifluorobutan-1-ol], the IC50 in assay [1] was under 0.1 µM; in assay [2], under 0.1 µM; in assay [3] it was under 0.1 µM; in assay [4], over 0.5 µM; in assay [5], over 0.5 µM; in assay [6], over 1 µM. Further, the IC50 in assay [7] was over 0.5 µM.
Consider `CS(=O)(=O)CCC(O)(c1ccc(-n2cc(-c3ccnc4[nH]cnc34)cn2)nc1)C(F)(F)F` (stereo not shown) [Example 1223, 2-(6-(4-(3H-imidazo[4,5-b]pyridin-7-yl)-1H-pyrazol-1-yl)pyridin-3-yl)-1,1,1-trifluoro-4-(methylsulfonyl)butan-2-ol], for which the IC50 in assay [1] was 0.002 µM; in assay [2] it was 0.015 µM; in assay [3] it was 0.004 µM; in assay [4] it was 0.39 µM; in assay [5] it was over 0.1 µM; in assay [6], over 1 µM. Also, the IC50 in assay [7] is over 0.5 µM.
In the case of `CS(=O)(=O)CCC(c1ccc(-n2cc(-c3ccnc4[nH]cnc34)cn2)nc1)C(F)(F)F` (stereo not shown) [Example 1174, 7-(1-(5-(1,1,1-trifluoro-4-(methylsulfonyl)butan-2-yl)pyridin-2-yl)-1H-pyrazol-4-yl)-3H-imidazo[4,5-b]pyridine], the IC50 in assay [1] was 0.018 µM; in assay [2], 0.108 µM; in assay [3], 0.055 µM; in assay [4], over 1 µM; in assay [5], 0.3 µM; in assay [6], over 10 µM. For the same compound, the IC50 in assay [7] turned out to be 1.3 µM.
Turning to `O=C(NCCC(c1ccc(-n2cc(-c3ccnc4[nH]cnc34)cn2)nc1)C(F)(F)F)C1CCCC1` (stereo not shown) [Example 1151, N-(3-(6-(4-(3H-imidazo[4,5-b]pyridin-7-yl)-1H-pyrazol-1-yl)pyridin-3-yl)-4,4,4-trifluorobutyl)cyclopentanecarboxamide], the IC50 in assay [1] was under 0.1 µM; in assay [2], over 0.1 µM; in assay [3] it was over 0.1 µM; in assay [4], over 1 µM; in assay [5] it was over 0.5 µM; in assay [6], over 1 µM. Moreover, in assay [7], the IC50 was over 1 µM.
With `FC(F)(F)[C@@H](c1ccc(-n2cc(-c3ccnc4[nH]cnc34)cn2)nc1)C1COC1` (single isomer, unassigned) [Example 1184], the IC50 in assay [1] was under 0.1 µM; in assay [2], over 0.1 µM; in assay [3], under 0.1 µM; in assay [4] it was over 1 µM; in assay [5] it was over 0.8 µM; in assay [6], over 1 µM. The IC50 in assay [7] turned out to be 1.5 µM.
For `CC(C)C(O)(c1ccc(-n2cc(-c3ccnc4[nH]cnc34)cn2)nc1)C(F)(F)F` (stereo not shown) [Example 1129, 2-(6-(4-(3H-imidazo[4,5-b]pyridin-7-yl)-1H-pyrazol-1-yl)pyridin-3-yl)-1,1,1-trifluoro-3-methylbutan-2-ol], the IC50 in assay [1] was under 0.1 µM; in assay [2] it was over 0.1 µM; in assay [3] it was under 0.1 µM; in assay [4] it was over 1 µM; in assay [5] it was over 0.5 µM; in assay [6], over 10 µM. In assay [7], the IC50 was over 1 µM.
Turning to `O=C(CCC(c1ccc(-n2cc(-c3ccnc4[nH]cnc34)cn2)nc1)C(F)(F)F)NC1CC1` (stereo not shown) [Example 1150, 4-(6-(4-(3H-imidazo[4,5-b]pyridin-7-yl)-1H-pyrazol-1-yl)pyridin-3-yl)-N-cyclopropyl-5,5,5-trifluoropentanamide], the IC50 in assay [1] was under 0.1 µM; in assay [2], under 0.1 µM; in assay [3], under 0.1 µM; in assay [4], over 1 µM; in assay [5], over 0.5 µM; in assay [6], over 1 µM. For the same compound, the IC50 in assay [7] was over 1 µM.
As to `N#CCNC(=O)n1cc(-c2ccnc3[nH]c(=O)[nH]c23)cn1` [Example 1027, N-(cyanomethyl)-4-(2,3-dihydro-2-oxo-1H-imidazo[4,5-b]pyridin-7-yl)-1H-pyrazole-1-carboxamide], the IC50 in assay [1] is 0.028 µM; in assay [2] it was 0.044 µM; in assay [3], 0.146 µM; in assay [4], 0.096 µM; in assay [5], over 10 µM; in assay [6], over 10 µM. Moreover, the IC50 in assay [7] is over 10 µM.

For the origin of these results see US12516056B2, “Compounds for inhibition of janus kinase 1” (MANKIND PHARMA LTD., priority 2019, dated 2026).
